In one assay the target is human LSD-1 (Homo sapiens (Human), UniProt O60341). Description: In vitro enzyme inhibition assay LSD-1 (TR-FRET). Format: biochemical. The following applies: TR-FRET, H3K4me1-biotin labeled peptide. From the text:
This assay determines the ability of a test compound to inhibit LSD-1 demethylase activity.
The enzymatic assay of LSD-1 activity is based on Time Resolved-Fluorescence Resonance Energy Transfer (TR-FRET) detection.
For orientation: Time-resolved FRET reads energy transfer from a long-lived donor to a nearby acceptor.

Assay [1] relates to CD11b expression in THP-1 (AML) cells. As to the kind of experiment: LSD-1 CD11b cellular assay (flow cytometry). The following applies: Homo sapiens, THP-1, 96 h, read-out: THP-1 IC50.

A value given as a limit tells only on which side of the number the result lay.

A word on the IC50: it is the concentration that inhibits the measured activity by half. Turning to `Cn1c(N2CCC(N)CC2)nc(-c2ccc(C#N)c(F)c2)c(-c2ccc3occc3c2)c1=O` [Example 18, 4-[2-(4-amino-piperidin-1-yl)-5-benzofuran-5-yl-1-methyl-6-oxo-1,6-dihydro-pyrimidin-4-yl]-2-fluoro-benzonitrile], the IC50 (against human LSD-1; in assay [1]) was less than 0.1 µM each time.
On to `COc1ccc(-c2c(-c3ccc(C#N)c(F)c3)nc(N3CC[C@H](N)[C@H](F)C3)n(C)c2=O)cc1` [Example 79, 4-[2-((4S, 3R)-4-amino-3-fluoro-piperidin-1-yl)-5-(4-methoxy-phenyl)-1-methyl-6-oxo-1,6-dihydro-pyrimidin-4-yl]-2-fluoro-benzonitrile], for which the IC50 (against human LSD-1; in assay [1]) was less than 0.1 µM in each case.
With `COc1ccc(-c2c(-c3ccc(C#N)c(F)c3)nc(N3CCC4(CCNC4)CC3)n(C)c2=O)cc1F` [Example 22, 4-[2-(2,8-diaza-spiro[4.5]dec-8-yl)-5-(3-fluoro-4-methoxy-phenyl)-1-methyl-6-oxo-1,6-dihydro-pyrimidin-4-yl]-2-fluorobenzonitrile], the IC50 (against human LSD-1; in assay [1]) was less than 0.1 µM throughout.
With `Cn1c(N2CCC(N)CC2)nc(-c2ccc(C#N)c(F)c2)c(-c2ccc(S(C)(=O)=O)cc2)c1=O` [Example 105, 4-[2-(4-aminopiperidin-1-yl)-1-methyl-5-(4-methylsulfonylphenyl)-6-oxopyrimidin-4-yl]-2-fluorobenzonitrile], the IC50 (at human LSD-1; in assay [1]) was less than 0.1 µM in each case.
Consider `COc1ccc(-c2c(-c3ccc(C#N)c(F)c3)nc(N3CCC(C)(N)CC3)n(C)c2=O)cc1F` [Example 32, 4-[2-(4-amino-4-methyl-piperidin-1-yl)-5-(3-fluoro-4-methoxy-phenyl)-1-methyl-6-oxo-1,6-dihydro-pyrimidin-4-yl]-2-fluoro-benzonitrile], for which the IC50 (against human LSD-1; in assay [1]) was less than 0.1 µM throughout.
For `COc1ccc(-c2c(-c3ccc(C#N)c(F)c3)nc(N(C)C[C@@H]3CCNC3)n(C)c2=O)cc1` (stereo in doubt) [Example 56, 2-fluoro-4-[5-(4-methoxy-phenyl)-1-methyl-2-(methyl-pyrrolidin-3-ylmethyl-amino)-6-oxo-1,6-dihydro-pyrimidin-4-yl]-benzonitrile], the half-maximal inhibitory concentration (IC50) (against human LSD-1; in assay [1]) was less than 0.1 µM in each case.
With `CN(C)C1CCN(c2nc(-c3ccc(C#N)c(F)c3)c(-c3ccc4cn[nH]c4c3)c(=O)n2C)CC1` [Example 84, 4-[2-(4-dimethylamino-piperidin-1-yl)-5-(2H-indazol-6-yl)-1-methyl-6-oxo-1,6-dihydro-pyrimidin-4-yl]-2-fluoro-benzonitrile], the IC50 (against human LSD-1; in assay [1]) was less than 0.1 µM each time.
Consider `Cn1c(N2CCC(N)CC2)nc(-c2ccc(C#N)c(F)c2)c(-c2ccc3c(c2)CNC3=O)c1=O` [Example 42, 4-[2-(4-amino-piperidin-1-yl)-1-methyl-6-oxo-5-(1-oxo-2,3-dihydro-1H-isoindol-5-yl)-1,6-dihydro-pyrimidin-4-yl]-2-fluoro-benzonitrile], for which the figures for the IC50 (against human LSD-1; in assay [1]) were less than 0.1 µM and 0.1 to 1 µM, respectively.
Regarding `CN(C)c1ccc(-c2c(-c3ccc(C#N)c(F)c3)nc(N3CCCNCC3)n(C)c2=O)cn1` [Example 63, 4-[2-[1,4]diazepan-1-yl-5-(6-dimethylamino-pyridin-3-yl)-1-methyl-6-oxo-1,6-dihydro-pyrimidin-4-yl]-2-fluoro-benzonitrile], the IC50 (against human LSD-1; in assay [1]) was less than 0.1 µM throughout.
In the case of `Cn1c(N2CCC(N)CC2)nc(-c2ccc(C#N)c(F)c2)c(C#CC2CCCC2)c1=O` [Example 14, 4-[2-(4-amino-piperidin-1-yl)-5-cyclopentylethynyl-1-methyl-6-oxo-1,6-dihydro-pyrimidin-4-yl]-2-fluoro-benzonitrile], the IC50 (against human LSD-1; in assay [1]) was less than 0.1 µM in each case.
On to `COc1ccc(-c2c(-c3ccc(C#N)c(F)c3)nc(NC[C@H]3CCNC3)n(C)c2=O)cc1` [Example 51, 2-fluoro-4-{5-(4-methoxy-phenyl)-1-methyl-6-oxo-2-[(3S)-(pyrrolidin-3-ylmethyl)-amino]-1,6-dihydro-pyrimidin-4-yl}-benzonitrile], for which the IC50 at human LSD-1 is less than 0.1 µM; in assay [1], 0.1 to 1 µM.
In the same order, the values of `COc1ccc(-c2c(-c3ccc(C#N)c(F)c3)nc(N3CC[C@H](N)C3)n(C)c2=O)cc1F` [Example 29, 4-[2-((3S)-3-amino-pyrrolidin-1-yl)-5-(3-fluoro-4-methoxy-phenyl)-1-methyl-6-oxo-1,6-dihydro-pyrimidin-4-yl]-2-fluoro-benzonitrile] are less than 0.1 µM and 0.1 to 1 µM.
In the same order, the values of `CN(C)c1ccc(-c2c(-c3ccc(C#N)c(F)c3)nc(N3CCC(N)CC3)n(C)c2=O)cc1` [Example 59, 4-[2-(4-amino-piperidin-1-yl)-5-(4-dimethylamino-phenyl)-1-methyl-6-oxo-1,6-dihydro-pyrimidin-4-yl]-2-fluoro-benzonitrile] are less than 0.1 µM and less than 0.1 µM.
For `CNC1CCN(c2nc(-c3ccc(C#N)c(F)c3)c(-c3ccc(OC)cc3)c(=O)n2C)CC1` [Example 11, 2-fluoro-4-[5-(4-methoxy-phenyl)-1-methyl-2-(4-methylamino-piperidin-1-yl)-6-oxo-1,6-dihydro-pyrimidin-4-yl]-benzonitrile], in that order: less than 0.1 µM and less than 0.1 µM.
As for `CNC(=O)c1ccc(-c2c(-c3ccc(C#N)c(F)c3)nc(N3CCC(N)CC3)n(C)c2=O)cn1` [Example 50, 5-[2-(4-amino-piperidin-1-yl)-4-(4-cyano-3-fluoro-phenyl)-1-methyl-6-oxo-1,6-dihydro-pyrimidin-5-yl]-pyridine-2-carboxylic acid methylamide], the IC50 (on human LSD-1; in assay [1]) was less than 0.1 µM throughout.
In the case of `COc1ccc(-c2c(-c3ccc(C#N)c(F)c3)nc(N3CCC(N)CC3)[nH]c2=O)cc1` [Example 122, 4-[2-(4-aminopiperidin-1-yl)-5-(4-methoxyphenyl)-6-oxo-1H-pyrimidin-4-yl]-2-fluorobenzonitrile], the IC50 (against human LSD-1; in assay [1]) was less than 0.1 µM in each case.
`CNC1CCN(c2nc(-c3ccc(C#N)c(F)c3)c(-c3ccc4c(cnn4C)c3)c(=O)n2C)CC1` [Example 87, 2-fluoro-4-[1-methyl-2-[4-(methylamino)piperidin-1-yl]-5-(1-methylindazol-5-yl)-6-oxopyrimidin-4-yl] benzonitrile]: the IC50 (at human LSD-1; in assay [1]) was less than 0.1 µM in each case.
Consider `COc1c(F)cc(-c2c(-c3ccc(C#N)cc3)nc(N3CCC(N)CC3)n(C)c2=O)cc1F` [Example 38, 4-[2-(4-aminopiperidyl)-5-(3,5-difluoro-4-methoxyphenyl)-1-methyl-6-oxohydropyrimidin-4-yl]benzenecarbonitrile], for which the IC50 (against human LSD-1; in assay [1]) was less than 0.1 µM each time.
Take `CNCC1CN(c2nc(-c3ccc(C#N)c(F)c3)c(-c3ccc(OC)cc3)c(=O)n2C)C1` [Example 70, 2-fluoro-4-[5-(4-methoxy-phenyl)-1-methyl-2-(3-methylaminomethyl-azetidin-1-yl)-6-oxo-1,6-dihydro-pyrimidin-4-yl]-benzonitrile]: the IC50 (on human LSD-1; in assay [1]) was less than 0.1 µM throughout.
Regarding `Cn1c(N2CCC(N)CC2)nc(-c2ccc(C#N)c(F)c2)c(-c2ccc3[nH]ccc3c2)c1=O` [Example 73, 4-[2-(4-amino-piperidin-1-yl)-5-(1H-indol-5-yl)-1-methyl-6-oxo-1,6-dihydro-pyrimidin-4-yl]-2-fluoro-benzonitrile], the IC50 (against human LSD-1; in assay [1]) was less than 0.1 µM each time.
On to `Cn1c(N2CCC(N)CC2)nc(-c2ccc(C#N)c(F)c2)c(-c2ccc3ccn(C)c3c2)c1=O` [Example 76, 4-[2-(4-amino-piperidin-1-yl)-1-methyl-5-(1-methyl-1H-indol-6-yl)-6-oxo-1,6-dihydro-pyrimidin-4-yl]-2-fluoro-benzonitrile], for which the IC50 (on human LSD-1; in assay [1]) was less than 0.1 µM each time.
With `CCOc1ccc(-c2c(-c3ccc(C#N)c(F)c3)nc(N3CCC(N)CC3)n(C)c2=O)cn1` [Example 94, 4-[2-(4-aminopiperidin-1-yl)-5-(6-ethoxypyridin-3-yl)-1-methyl-6-oxopyrimidin-4-yl]-2-fluorobenzonitrile], the IC50 (on human LSD-1; in assay [1]) was less than 0.1 µM each time.
Take `COc1ccc(-c2c(-c3ccc(C#N)c(F)c3)nc(N3CC[C@@H](N)C3)n(C)c2=O)cc1F` [Example 27, 4-[2-((3R)-3-aminopyrrolidinyl)-5-(3-fluoro-4-methoxyphenyl)-1-methyl-6-oxohydropyrimidin-4-yl]-2-fluorobenzenecarbonitrile]: the IC50 (on human LSD-1; in assay [1]) was less than 0.1 µM in each case.
For `Cn1c(N2CCC(N)CC2)nc(-c2ccc(C#N)c(F)c2)c(-c2ccc(N3CCCC3)nc2)c1=O` [Example 60, 4-[2-(4-amino-piperidin-1-yl)-1-methyl-6-oxo-5-(6-pyrrolidin-1-yl-pyridin-3-yl)-1,6-dihydro-pyrimidin-4-yl]-2-fluoro-benzonitrile], the IC50 (against human LSD-1; in assay [1]) was less than 0.1 µM in each case.
With `CNC1CCN(c2nc(-c3ccc(C#N)c(F)c3)c(-c3ccc(N(C)C)nc3)c(=O)n2C)CC1` [Example 83, 4-[5-(6-dimethylamino-pyridin-3-yl)-1-methyl-2-(4-methylamino-piperidin-1-yl)-6-oxo-1,6-dihydro-pyrimidin-4-yl]-2-fluoro-benzonitrile], the IC50 (against human LSD-1; in assay [1]) was less than 0.1 µM each time.
As to `COCCOc1ccc(-c2c(-c3ccc(C#N)c(F)c3)nc(N3CCC(N)CC3)n(C)c2=O)cc1` [Example 98, 4-[2-(4-aminopiperidin-1-yl)-5-[4-(2-methoxyethoxy)phenyl]-1-methyl-6-oxopyrimidin-4-yl]-2-fluorobenzonitrile], the IC50 (against human LSD-1; in assay [1]) was less than 0.1 µM in each case.
